Data taken from US20230218710A1, “METHOD OF TREATING CORONAVIRUS INFECTIONS” (priority 2020, published 2023).
Marks after values point to notes of the source that are not given here.

What was measured:
[1] = system: LPS-induced acute lung injury mouse model; assay: LPS-induced acute lung injury model in mouse (Example 8); format: in vivo, mice; conditions: HCl salts; for Pro-inflammatory Cytokine Level IFNγ / Pro-inflammatory Cytokine Level IL-1β / Pro-inflammatory Cytokine Level IL-2 / Pro-inflammatory Cytokine Level IL-4 / Pro-inflammatory Cytokine Level IL-5 / Pro-inflammatory Cytokine Level IL-6 / Pro-inflammatory Cytokine Level IL-9 / Pro-inflammatory Cytokine Level IL-10 / Pro-inflammatory Cytokine Level IL-12p70 / Pro-inflammatory Cytokine Level IL-17A / Pro-inflammatory Cytokine Level IL-17A/F / Pro-inflammatory Cytokine Level IL-17C / Pro-inflammatory Cytokine Level IL-17E/IL-25 / Pro-inflammatory Cytokine Level IL-23 / Pro-inflammatory Cytokine Level IL-27p28/IL-30 / Pro-inflammatory Cytokine Level IL-31 / Pro-inflammatory Cytokine Level IP-10 / Pro-inflammatory Cytokine Level KC/GRO / Pro-inflammatory Cytokine Level MCP-1 / Pro-inflammatory Cytokine Level MIP-1α / Pro-inflammatory Cytokine Level MIP-2 / Pro-inflammatory Cytokine Level MIP-3α / Pro-inflammatory Cytokine Level TNFα: BALF; for Mean (SEM) Alveolar Neutrophil Infiltration Score / Mean (SEM) Interstitial Neutrophil Infiltration Score / Mean (SEM) Composite Lung Injury Score: histopathology; for Mean (SEM) Alveolar Neutrophil Infiltration Score / Mean (SEM) Interstitial Neutrophil Infiltration Score: 0-5 scale
Experimental: The effect of the peptides of the current invention on acute lung injury can be assessed in an LPS-induced acute lung injury mouse model by monitoring outcomes such as lung weight, fluid accumulation, cytokine secretion in blood or bronchoalveolar lavage fluid (BALF), neutrophil infiltration into lung tissues, and assessment of acute lung injury score by histopathology. Acute lung injury was induced in male C57BL/6 mice (6 to 8 weeks old) by intratracheal administration of 40 μL lipopolysaccharide (LPS) (Sigma Aldrich, St. Louis, Mo.) in PBS at 5 mg/kg. Control animals received intratracheal PBS alone. Animals (n=8 per treatment group) induced with LPS received intraperitoneal treatment with: PBS (vehicle control) or test peptides at 5 or 15 mg/kg in water. Treatments were administered 1 h prior to LPS for animals designated for termination at 4 h after LPS, or at both 1 h prior to and 6 h after LPS for animals designated for termination at 24 h after LPS. At 4 or 24 hours post-LPS administration, tissues were harvested. Lungs were weighed and flushed with Hanks Buffer to provide bronchoalveolar lavage fluid (BALF). Lungs collected at 24 h were fixed in 10% neutral buffered formalin (NBF) for histopathology. Tissue slides were stained with hematoxylin and eosin (H&E) and evaluated and scored with light microscopy of 5 representative microscopic fields (100× magnification) scoring on a 0-5 scale using standard methods (Matute-Bello G et al 2011. An Official American Thoracic Society Workshop Report: Features and Measurements of Experimental Acute Lung Injury in Animals. Am J Respir Cell Mol Biol 44:725-38). The average score for five fields was calculated for each animal. Levels of pro-inflammatory cytokines in BALF at 4 h were determined using a meso scale discovery (MSD) system. Data for test peptides were compared to the vehicle control group. Table 13 compares the lung weights following LPS induction and treatment with PBS (vehicle control), or peptides. Table 14 compares the levels of pro-inflammatory cytokines in BALF following LPS induction and treatment with PBS (vehicle control) or peptides. Table 15 compares the histopathology scores for infiltration of neutrophils into alveoli and interstitial lung tissue and the composite lung injury score following LPS induction and treatment with PBS (vehicle control) or peptides.

Apelin Receptor (APJ) = target: T1, Apelin Receptor (APJ) (Homo sapiens, UniProt P35414); assay: Phosphorylation of ERK1/2 in cultured cells overexpressing APJ; format: cell-based; conditions: 5 min, 100 nM Pyr-Apelin-13 = positive control, acetate salts
T1 construct: host or cells: CHO-K1 AGTRL1 Gi cells
T1 sequence (P35414 1-380): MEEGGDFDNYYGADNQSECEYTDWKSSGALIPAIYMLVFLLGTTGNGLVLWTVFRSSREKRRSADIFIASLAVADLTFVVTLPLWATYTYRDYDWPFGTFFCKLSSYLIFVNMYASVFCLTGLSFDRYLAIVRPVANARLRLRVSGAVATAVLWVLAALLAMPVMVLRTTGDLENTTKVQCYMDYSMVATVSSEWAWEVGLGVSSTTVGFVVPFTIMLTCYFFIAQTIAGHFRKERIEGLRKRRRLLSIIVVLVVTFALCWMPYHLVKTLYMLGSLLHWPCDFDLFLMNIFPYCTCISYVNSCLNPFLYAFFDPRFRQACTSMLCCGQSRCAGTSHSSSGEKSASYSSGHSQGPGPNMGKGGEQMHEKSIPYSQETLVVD
Experimental: The effect of the peptides of the current invention on activation of Apelin Receptor (APJ)-mediated signaling can be assessed using an assay to monitor phospho-ERK/phospho-p44/42 MAPK (p-ERK1/2) levels in cultured cells overexpressing Apelin Receptor (APJ) such as CHO-K1, derived from Chinese hamster ovary. Peptides were initially prepared as 100× stocks in H2O. […] Following a 5 min incubation the supernatant was removed and the cells were placed on ice and washed twice with cold HBSS. The HBSS was removed and the cells were immediately lysed in 300 μl/well of 1× lysis buffer (CST 10× Lysis Buffer; Cell Signaling Technology; Danvers, Mass.); lysis buffer was supplemented with 1 mM PMSF (Millipore-Sigma; Saint Louis, Mo.) and Halt Protease/Phosphatase Inhibitor Cocktail (Thermo-Fisher; Waltham, Mass.) prior to use. The samples were then placed on ice for 10 min, wells were scraped and lysates transferred to microfuge tubes. The samples were centrifuged at 12,500 rpm for 10 min at 4° C. and p-ERK1/2 expression in each sample was measured using Phospho-p44/42 MAPK (Thr202/Tyr204) Sandwich ELISA kit according to manufacturer's instructions (Cell Signaling Technology; Danvers, Mass.). Absorbance was measured using a Cytation 3 plate reader at […] (BioTek; Winooski, Vt.). […] Each data point represents the average of duplicate assays.

## (PEG12)KRRLLGLVFQSLCG(dA) (KRRLLGLVFQSLCGA; N-terminal PEG12; C-terminal D-alanine; (1)..(1) PEG12; (15)..(15) D-Ala) [SEQ ID NO: 37]
[1]; 4 h after LPS, 5 mg/kg i.p.
  Mean (SEM) Lung Weight: 0.279 (0.006) g
  Pro-inflammatory Cytokine Level IFNγ: 0.37 (0.07) pg/mL
  Pro-inflammatory Cytokine Level IL-1β: 68.3 (12.6) pg/mL
  Pro-inflammatory Cytokine Level IL-2: 2.83 (0.45) pg/mL
  Pro-inflammatory Cytokine Level IL-4: 1.63 (0.37) pg/mL
  Pro-inflammatory Cytokine Level IL-5: 8.14 (1.35) pg/mL
  Pro-inflammatory Cytokine Level IL-6: 9380 (1380) pg/mL
  Pro-inflammatory Cytokine Level IL-9: 7.84 (0.67) pg/mL
  Pro-inflammatory Cytokine Level IL-10: 32.2 (5.31) pg/mL
  Pro-inflammatory Cytokine Level IL-12p70: 65.2 (15.9) pg/mL
  Pro-inflammatory Cytokine Level IL-17A: 2.22 (0.741) pg/mL
  Pro-inflammatory Cytokine Level IL-17A/F: 7.45 (2.46) pg/mL
  Pro-inflammatory Cytokine Level IL-17C: 0.66 (0.04) pg/mL
  Pro-inflammatory Cytokine Level IL-17E/IL-25: 0.18 (0.10) pg/mL
  Pro-inflammatory Cytokine Level IL-23: 0.08 (0.07) pg/mL
  Pro-inflammatory Cytokine Level IL-27p28/IL-30: 13.7 (2.44) pg/mL
  Pro-inflammatory Cytokine Level IL-31: 0.00 (0.00) pg/mL
  Pro-inflammatory Cytokine Level IP-10: 2290 (341) pg/mL
  Pro-inflammatory Cytokine Level KC/GRO: 3120 (196) pg/mL
  Pro-inflammatory Cytokine Level MCP-1: 1310 (225) pg/mL
  Pro-inflammatory Cytokine Level MIP-1α: 5660 (50.6) pg/mL
  Pro-inflammatory Cytokine Level MIP-2: 3230 (25.1) pg/mL
  Pro-inflammatory Cytokine Level MIP-3α: 983 (75.1) pg/mL
  Pro-inflammatory Cytokine Level TNFα: 4070 (518) pg/mL
[1]; 4 h after LPS, 15 mg/kg i.p.
  Mean (SEM) Lung Weight: 0.280 (0.005) g
  Pro-inflammatory Cytokine Level IFNγ: 0.42 (0.10) pg/mL
  Pro-inflammatory Cytokine Level IL-1β: 91.5 (20.0) pg/mL
  Pro-inflammatory Cytokine Level IL-2: 3.36 (0.55) pg/mL
  Pro-inflammatory Cytokine Level IL-4: 1.75 (0.28) pg/mL
  Pro-inflammatory Cytokine Level IL-5: 13.2 (2.05) pg/mL
  Pro-inflammatory Cytokine Level IL-6: 11600 (1360) pg/mL
  Pro-inflammatory Cytokine Level IL-9: 7.89 (1.31) pg/mL
  Pro-inflammatory Cytokine Level IL-10: 31.5 (3.76) pg/mL
  Pro-inflammatory Cytokine Level IL-12p70: 80.0 (21.8) pg/mL
  Pro-inflammatory Cytokine Level IL-17A: 2.82 (0.639) pg/mL
  Pro-inflammatory Cytokine Level IL-17A/F: 4.48 (0.59) pg/mL
  Pro-inflammatory Cytokine Level IL-17C: 0.69 (0.13) pg/mL
  Pro-inflammatory Cytokine Level IL-17E/IL-25: 0.44 (0.29) pg/mL
  Pro-inflammatory Cytokine Level IL-23: 0.06 (0.05) pg/mL
  Pro-inflammatory Cytokine Level IL-27p28/IL-30: 15.5 (2.42) pg/mL
  Pro-inflammatory Cytokine Level IL-31: 0.00 (0.00) pg/mL
  Pro-inflammatory Cytokine Level IP-10: 3020 (547) pg/mL
  Pro-inflammatory Cytokine Level KC/GRO: 3260 (142) pg/mL
  Pro-inflammatory Cytokine Level MCP-1: 1590 (178) pg/mL
  Pro-inflammatory Cytokine Level MIP-1α: 5490 (35.1) pg/mL
  Pro-inflammatory Cytokine Level MIP-2: 3160 (34.2) pg/mL
  Pro-inflammatory Cytokine Level MIP-3α: 825 (46.9) pg/mL
  Pro-inflammatory Cytokine Level TNFα: 3910 (349) pg/mL
[1]; 24 h after LPS, 5 mg/kg i.p.
  Mean (SEM) Lung Weight: 0.286 (0.008)* g
  Mean (SEM) Alveolar Neutrophil Infiltration Score: 1.50 (0.09)
  Mean (SEM) Interstitial Neutrophil Infiltration Score: 1.55 (0.14)
  Mean (SEM) Composite Lung Injury Score: 3.08 (0.17)
[1]; 24 h after LPS, 15 mg/kg i.p.
  Mean (SEM) Lung Weight: 0.284 (0.007)* g
  Mean (SEM) Alveolar Neutrophil Infiltration Score: 1.60 (0.13)
  Mean (SEM) Interstitial Neutrophil Infiltration Score: 1.23 (0.11)
  Mean (SEM) Composite Lung Injury Score: 2.93 (0.22)
Apelin Receptor (APJ); 0.4 μM peptide
  pERK1/2 (% of Positive Control): 9.9%
Apelin Receptor (APJ); 2.0 μM peptide
  pERK1/2 (% of Positive Control): 27.3%
Apelin Receptor (APJ); 10 μM peptide
  pERK1/2 (% of Positive Control): 54.2%
Apelin Receptor (APJ); 50 μM peptide
  pERK1/2 (% of Positive Control): 88.4%
